According to patent publication US11331369B2, “Endoparasitic depsipeptides” (Zoetis Services LLC, priority 2017, dated 2022):

Test system: microfilariae of Dirofilaria immitis
Experiment: Dirofilaria immitis, Microfilaria (DiMF) In vitro Assay
Type: cell-based
Settings: 72 h, read-out: DiMF Minimum Effective Dose (MED), approximately 72 hours incubation, microfilariae assessed for survival or paralysis

SMILES	minimal effective concentration
CC(C)C[C@H]1C(=O)O[C@H](Cc2ccc(Cn3cc4ccccc4n3)cc2)C(=O)N(C)[C@@H](CC(C)C)C(=O)O[C@H](C)C(=O)N(C)[C@@H](CC(C)C)C(=O)O[C@H](Cc2ccc(Cn3cc4ccccc4n3)cc2)C(=O)N(C)[C@@H](CC(C)C)C(=O)O[C@H](C)C(=O)N1C [Example 9-35, (3S,6R,9S,12R,15S,18R,21S,24R)-6,18-bis(4-((2H-indazol-2-yl)methyl)benzyl)-3,9,15,21-tetraisobutyl-4,10,12,16,22,24-hexamethyl-1,7,13,19-tetraoxa-4,10,16,22-tetraazacyclotetracosan-2,5,8,11,14,17,20,23-octaone]	0.01 to 0.1 µM
CC(C)C[C@H]1C(=O)O[C@H](Cc2ccc(Cn3cc4c(n3)CCC4)cc2)C(=O)N(C)[C@@H](CC(C)C)C(=O)O[C@H](C)C(=O)N(C)[C@@H](CC(C)C)C(=O)O[C@H](Cc2ccc(Cn3cc4c(n3)CCC4)cc2)C(=O)N(C)[C@@H](CC(C)C)C(=O)O[C@H](C)C(=O)N1C [Example 9-42, (3S,6R,9S,12R,15S,18R,21S,24R)-6,18-bis[[4-(5,6-dihydro-4H-cyclopenta[c]pyrazol-2-ylmethyl)phenyl]methyl]-3,9,15,21-tetraisobutyl-4,10,12,16,22,24-hexamethyl-1,7,13,19-tetraoxa-4,10,16,22-tetrazacyclotetracosane-2,5,8,11,14,17,20,23-octaone]	0.01 to 0.1 µM
CC(C)C[C@H]1C(=O)O[C@H](Cc2ccc(Cn3ncc4cccnc43)cc2)C(=O)N(C)[C@@H](CC(C)C)C(=O)O[C@H](C)C(=O)N(C)[C@@H](CC(C)C)C(=O)O[C@H](Cc2ccc(Cn3ncc4cccnc43)cc2)C(=O)N(C)[C@@H](CC(C)C)C(=O)O[C@H](C)C(=O)N1C [Example 9-49, (3S,6R,9S,12R,15S,18R,21S,24R)-6,18-bis(4-((1H-pyrazolo[3,4-b]pyridin-1-yl)methyl)benzyl)-3,9,15,21-tetraisobutyl-4,10,12,16,22,24-hexamethyl-1,7,13,19-tetraoxa-4,10,16,22-tetraazacyclotetracosan-2,5,8,11,14,17,20,23-octaone]	0.001 to 0.01 µM
CC(C)C[C@H]1C(=O)O[C@H](Cc2ccc(CN3CCS(=O)(=O)c4cccnc43)cc2)C(=O)N(C)[C@@H](CC(C)C)C(=O)O[C@H](C)C(=O)N(C)[C@@H](CC(C)C)C(=O)O[C@H](Cc2ccc(CN3CCS(=O)(=O)c4cccnc43)cc2)C(=O)N(C)[C@@H](CC(C)C)C(=O)O[C@H](C)C(=O)N1C [Example 9-62, (3S,6R,9S,12R,15S,18R,21S,24R)-6,18-bis(4-((1,1-dioxido-2,3-dihydro-4H-pyrido[3,2-b][1,4]thiazin-4-yl)methyl)benzyl)-3,9,15,21-tetraisobutyl-4,10,12,16,22,24-hexamethyl-1,7,13,19-tetraoxa-4,10,16,22-tetraazacyclotetracosan-2,5,8,11,14,17,20,23-octaone]	0.01 to 0.1 µM
CC(C)C[C@H]1C(=O)O[C@H](Cc2ccc(CN3CCOc4cccnc43)cc2)C(=O)N(C)[C@@H](CC(C)C)C(=O)O[C@H](C)C(=O)N(C)[C@@H](CC(C)C)C(=O)O[C@H](Cc2ccc(CN3CCOc4cccnc43)cc2)C(=O)N(C)[C@@H](CC(C)C)C(=O)O[C@H](C)C(=O)N1C [Example 9-64, (3S,6R,9S,12R,15S,18R,21S,24R)-6,18-bis[[4-(2,3-dihydropyrido[3,2-b][1,4]oxazin-4-ylmethyl)phenyl]methyl]-3,9,15,21-tetraisobutyl-4,10,12,16,22,24-hexamethyl-1,7,13,19-tetraoxa-4,10,16,22-tetrazacyclotetracosane-2,5,8,11,14,17,20,23-octaone]	0.01 to 0.1 µM
CC(C)C[C@H]1C(=O)O[C@H](C)C(=O)N(C)[C@@H](CC(C)C)C(=O)O[C@H](Cc2ccccc2)C(=O)N(C)[C@@H](CC(C)C)C(=O)O[C@H](C)C(=O)N(C)[C@@H](CC(C)C)C(=O)O[C@@H](Cc2ccc(CN3CCCCC3)cc2)C(=O)N1C [Example 10-2, (3S,6R,9S,12R,15S,18S,21S,24R)-6-benzyl-3,9,15,21-tetraisobutyl-4,10,12,16,22,24-hexamethyl-18-(4-(piperidin-1-ylmethyl)benzyl)-1,7,13,19-tetraoxa-4,10,16,22-tetraazacyclotetracosan-2,5,8,11,14,17,20,23-octaone]	0.01 to 0.1 µM
CC(C)C[C@H]1C(=O)O[C@H](Cc2ccc(CN3CCN(C(=O)OC(C)(C)C)CC3)cc2)C(=O)N(C)[C@@H](CC(C)C)C(=O)O[C@H](C)C(=O)N(C)[C@@H](CC(C)C)C(=O)O[C@H](Cc2ccccc2)C(=O)N(C)[C@@H](CC(C)C)C(=O)O[C@H](C)C(=O)N1C [Example 10-9, tert-butyl 4-(4-(((2R,5S,8R,11S,14R,17S,20R,23S)-14-benzyl-5,11,17,23-tetraisobutyl-4,8,10,16,20,22-hexamethyl-3,6,9,12,15,18,21,24-octaoxo-1,7,13,19-tetraoxa-4,10,16,22-tetraazacyclotetracosan-2-yl)methyl)benzyl)piperazine-1-carboxylate]	0.01 to 0.1 µM
CC(C)C[C@H]1C(=O)O[C@H](Cc2ccc(CN3CCN(S(C)(=O)=O)CC3)cc2)C(=O)N(C)[C@@H](CC(C)C)C(=O)O[C@H](C)C(=O)N(C)[C@@H](CC(C)C)C(=O)O[C@H](Cc2ccccc2)C(=O)N(C)[C@@H](CC(C)C)C(=O)O[C@H](C)C(=O)N1C [Example 10-10, (3S,6R,9S,12R,15S,18R,21S,24R)-6-benzyl-3,9,15,21-tetraisobutyl-4,10,12,16,22,24-hexamethyl-18-(4-((4-(methylsulfonyl)piperazin-1-yl)methyl)benzyl)-1,7,13,19-tetraoxa-4,10,16,22-tetraazacyclotetracosan-2,5,8,11,14,17,20,23-octaone]	0.01 to 0.1 µM
CC(C)C[C@H]1C(=O)O[C@H](Cc2ccc(Cn3c(=O)ccc4ccccc43)cc2)C(=O)N(C)[C@@H](CC(C)C)C(=O)O[C@H](C)C(=O)N(C)[C@@H](CC(C)C)C(=O)O[C@H](Cc2ccccc2)C(=O)N(C)[C@@H](CC(C)C)C(=O)O[C@H](C)C(=O)N1C [Example 10-12, (3S,6R,9S,12R,15S,18R,21S,24R)-6-benzyl-3,9,15,21-tetraisobutyl-4,10,12,16,22,24-hexamethyl-18-(4-((2-oxoquinolin-1 (2H)-yl)methyl)benzyl)-1,7,13,19-tetraoxa-4,10,16,22-tetraazacyclotetracosan-2,5,8,11,14,17,20,23-octaone]	0.01 to 0.1 µM
CC(C)C[C@H]1C(=O)O[C@H](Cc2ccc(Cn3ccc4cccnc43)cc2)C(=O)N(C)[C@@H](CC(C)C)C(=O)O[C@H](C)C(=O)N(C)[C@@H](CC(C)C)C(=O)O[C@H](Cc2ccccc2)C(=O)N(C)[C@@H](CC(C)C)C(=O)O[C@H](C)C(=O)N1C [Example 10-14, (3S,6R,9S,12R,15S,18R,21S,24R)-6-(4-((1H-pyrrolo[2,3-b]pyridin-1-yl)methyl)benzyl)-18-benzyl-3,9,15,21-tetraisobutyl-4,10,12,16,22,24-hexamethyl-1,7,13,19-tetraoxa-4,10,16,22-tetraazacyclotetracosan-2,5,8,11,14,17,20,23-octaone]	0.01 to 0.1 µM
CC(C)C[C@H]1C(=O)O[C@H](Cc2ccc(CN3CCOc4ccccc43)cc2)C(=O)N(C)[C@@H](CC(C)C)C(=O)O[C@H](C)C(=O)N(C)[C@@H](CC(C)C)C(=O)O[C@H](Cc2ccccc2)C(=O)N(C)[C@@H](CC(C)C)C(=O)O[C@H](C)C(=O)N1C [Example 10-16, (3S,6R,9S,12R,15S,18R,21S,24R)-6-benzyl-18-(4-((2,3-dihydro-4H-benzo[b][1,4]oxazin-4-yl)methyl)benzyl)-3,9,15,21-tetraisobutyl-4,10,12,16,22,24-hexamethyl-1,7,13,19-tetraoxa-4,10,16,22-tetraazacyclotetracosan-2,5,8,11,14,17,20,23-octaone]	0.01 to 0.1 µM
CC(C)C[C@H]1C(=O)O[C@H](Cc2ccc(Cn3cc(CO)nn3)cc2)C(=O)N(C)[C@@H](CC(C)C)C(=O)O[C@H](C)C(=O)N(C)[C@@H](CC(C)C)C(=O)O[C@H](Cc2ccccc2)C(=O)N(C)[C@@H](CC(C)C)C(=O)O[C@H](C)C(=O)N1C [Example 10-19, (3S,6R,9S,12R,15S,18R,21S,24R)-6-benzyl-18-(4-((4-(hydroxymethyl)-1H-1,2,3-triazol-1-yl)methyl)benzyl)-3,9,15,21-tetraisobutyl-4,10,12,16,22,24-hexamethyl-1,7,13,19-tetraoxa-4,10,16,22-tetraazacyclotetracosan-2,5,8,11,14,17,20,23-octaone]	0.01 to 0.1 µM
Cc1ccc(OCc2cn(Cc3ccc(C[C@H]4OC(=O)[C@H](CC(C)C)N(C)C(=O)[C@@H](C)OC(=O)[C@H](CC(C)C)N(C)C(=O)[C@@H](Cc5ccccc5)OC(=O)[C@H](CC(C)C)N(C)C(=O)[C@@H](C)OC(=O)[C@H](CC(C)C)N(C)C4=O)cc3)nn2)cc1 [Example 10-21, (3S,6R,9S,12R,15S,18R,21S,24R)-6-benzyl-3,9,15,21-tetraisobutyl-4,10,12,16,22,24-hexamethyl-18-(4-((4-((p-tolyloxy)methyl)-1H-1,2,3-triazol-1-yl)methyl)benzyl)-1,7,13,19-tetraoxa-4,10,16,22-tetraazacyclotetracosan-2,5,8,11,14,17,20,23-octaone]	0.01 to 0.1 µM
COc1ccc(OCc2cn(Cc3ccc(C[C@H]4OC(=O)[C@H](CC(C)C)N(C)C(=O)[C@@H](C)OC(=O)[C@H](CC(C)C)N(C)C(=O)[C@@H](Cc5ccccc5)OC(=O)[C@H](CC(C)C)N(C)C(=O)[C@@H](C)OC(=O)[C@H](CC(C)C)N(C)C4=O)cc3)nn2)cc1 [Example 10-22, (3S,6R,9S,12R,15S,18R,21S,24R)-6-benzyl-3,9,15,21-tetraisobutyl-18-(4-((4-((4-methoxyphenoxy)methyl)-1H-1,2,3-triazol-1-yl)methyl)benzyl)-4,10,12,16,22,24-hexamethyl-1,7,13,19-tetraoxa-4,10,16,22-tetraazacyclotetracosan-2,5,8,11,14,17,20,23-octaone]	0.01 to 0.1 µM
